Laboratory results: patent US20180186742A1, “PICOLINAMIDES AS FUNGICIDES” (Dow AgroSciences LLC, priority 2017, published 2018)
Where two headings read alike, the source gives them in different places.

Key:
Zymoseptoria tritici = test: Leaf blotch of wheat (SEPTTR), disease control on wheat seedlings; assay type: in vivo; details: low volume application at 121.5 g/H
Procedure: Technical grades of materials were dissolved in acetone, which were then mixed with nine volumes of water containing 110 ppm Triton X-100. The fungicide solutions were applied onto wheat seedlings using an automated booth sprayer to run-off. All sprayed plants were allowed to air dry prior to further handling. All fungicides were evaluated using the aforementioned method for their activity vs. all target diseases, unless stated otherwise. Wheat leaf blotch and brown rust activity were also evaluated using track spray applications, in which case the fungicides were formulated as EC formulations, containing 0.1% Trycol 5941 in the spray solutions. Wheat plants (variety Yuma) were grown from seed in a greenhouse in 50% mineral soil/50% soil-less Metro mix until the first leaf was fully emerged, with 7-10 seedlings per pot. These plants were inoculated with an aqueous spore suspension of Zymoseptoria tritici either prior to or after fungicide treatments. After inoculation the plants were kept in 100% relative humidity (one day in a dark dew chamber followed by two to three days in a lighted dew chamber at 20° C.) to permit spores to germinate and infect the leaf. The plants were then transferred to a greenhouse set at 20° C. for disease to develop. When disease symptoms were fully expressed on the 1st leaves of untreated plants, infection levels were assessed on a scale of 0 to 100 percent disease severity. Percent disease control was calculated using the ratio of disease severity on treated plants relative to untreated plants.

Puccinia triticina = test: Wheat brown rust (PUCCRT), disease control on wheat seedlings; assay type: in vivo; details: low volume application at 121.5 g/H
Procedure: Technical grades of materials were dissolved in acetone, which were then mixed with nine volumes of water containing 110 ppm Triton X-100. The fungicide solutions were applied onto wheat seedlings using an automated booth sprayer to run-off. All sprayed plants were allowed to air dry prior to further handling. All fungicides were evaluated using the aforementioned method for their activity vs. all target diseases, unless stated otherwise. Wheat leaf blotch and brown rust activity were also evaluated using track spray applications, in which case the fungicides were formulated as EC formulations, containing 0.1% Trycol 5941 in the spray solutions. Wheat plants (variety Yuma) were grown from seed in a greenhouse in 50% mineral soil/50% soil-less Metro mix until the first leaf was fully emerged, with 7-10 seedlings per pot. These plants were inoculated with an aqueous spore suspension of Puccinia triticina either prior to or after fungicide treatments. After inoculation the plants were kept in a dark dew room at 22° C. with 100% relative humidity overnight to permit spores to germinate and infect the leaf. The plants were then transferred to a greenhouse set at 24° C. for disease to develop. Fungicide formulation, application and disease assessment followed the procedures as described in the Example A.

[1] = 24 h, 1 Day Protectant, read-out: SEPTTR disease control, 1DP, LV activity
[2] = 72 h, 3 Day Curative, read-out: SEPTTR disease control, 3DC, LV activity
[3] = 24 h, 1 Day Protectant, read-out: PUCCRT disease control, 1DP, LV activity
[4] = 72 h, 3 Day Curative, read-out: PUCCRT disease control, 3DC, LV activity

| Compound | pest or weed control at 121.5 g/ha (Zymoseptoria tritici; [1]) | pest or weed control at 121.5 g/ha (Zymoseptoria tritici; [2]) | pest or weed control at 121.5 g/ha (Puccinia triticina; [3]) | pest or weed control at 121.5 g/ha (Puccinia triticina; [4]) |
| --- | --- | --- | --- | --- |
| COc1ccnc(C(=O)N[C@@H](C)C(=O)O[C@@H](C)[C@H](c2ccccc2)C(C)C)c1OC(C)=O [Compound 165] | > 80% | > 80% | > 80% | > 80% |
| COc1ccnc(C(=O)N[C@@H](C)C(=O)O[C@@H](C)[C@H](c2ccc(C)cc2)C2CC2)c1OC(C)=O [Compound 166] | < 80% | > 80% | > 80% | > 80% |
| COc1ccnc(C(=O)N[C@@H](C)C(=O)O[C@@H](C)[C@H](c2ccc(C)cc2)C2CC2)c1OCOC(C)=O [Compound 167] | > 80% | > 80% | > 80% | > 80% |
| COc1ccnc(C(=O)N[C@@H](C)C(=O)O[C@@H](C)[C@H](c2ccc(C)cc2)C(C)C)c1OC(C)=O [Compound 168] | < 80% | < 80% | > 80% | > 80% |
| COc1ccnc(C(=O)N[C@@H](C)C(=O)OC(C)C(c2ccc(F)cc2)C(C)C)c1OC(C)=O (stereo partly drawn) [Compound 169] | < 80% | > 80% | > 80% | > 80% |
| COc1ccnc(C(=O)N[C@@H](C)C(=O)O[C@@H](C)[C@H](c2ccc(F)cc2)C2CC2)c1OC(C)=O [Compound 170] | > 80% | > 80% | > 80% | > 80% |
| COc1ccnc(C(=O)N[C@@H](C)C(=O)O[C@@H](C)[C@H](c2ccc(F)cc2)C2CC2)c1OCOC(C)=O [Compound 171] | > 80% | > 80% | > 80% | > 80% |
| CCC(CC)[C@@H](c1ccccc1)C(C)OC(=O)[C@H](C)NC(=O)c1nccc(OC)c1OC(C)=O (stereo partly drawn) [Compound 172] | > 80% | > 80% | > 80% | > 80% |
| COc1ccnc(C(=O)N[C@@H](C)C(=O)OC(C)[C@H](c2ccccc2)C2CCCC2)c1OC(C)=O (stereo partly drawn) [Compound 173] | > 80% | > 80% | > 80% | < 80% |
| CCC(CC)[C@@H](c1ccccc1)C(C)OC(=O)[C@H](C)NC(=O)c1nccc(OC)c1OCOC(C)=O (stereo partly drawn) [Compound 174] | > 80% | > 80% | > 80% | > 80% |
| COc1ccnc(C(=O)N[C@@H](C)C(=O)OC(C)[C@H](c2ccccc2)C2CCCC2)c1OCOC(C)=O (stereo partly drawn) [Compound 175] | > 80% | > 80% | > 80% | > 80% |
| COc1ccnc(C(=S)N[C@@H](C)C(=O)OC(C)[C@H](c2ccccc2)C2CCCC2)c1OC(C)=O (stereo partly drawn) [Compound 176] | > 80% | > 80% | > 80% | < 80% |
| COCCC(=O)Oc1c(OC)ccnc1C(=O)N[C@@H](C)C(=O)O[C@@H](C)[C@H](c1ccc(C)cc1)C(C)C [Compound 245] | < 80% |  | > 80% | > 80% |
| COCCC(=O)Oc1c(OC)ccnc1C(=O)N[C@@H](C)C(=O)O[C@@H](C)[C@H](c1ccc(F)c(C)c1)C(C)C [Compound 246] | > 80% |  | > 80% | > 80% |
| COCCC(=O)Oc1c(OC)ccnc1C(=O)N[C@@H](C)C(=O)O[C@@H](C)[C@H](c1ccc(OC)cc1F)C(C)C [Compound 247] | < 80% |  | > 80% | > 80% |
| COCCC(=O)Oc1c(OC)ccnc1C(=O)N[C@@H](C)C(=O)O[C@@H](C)[C@H](c1ccc(OC)c(F)c1)C(C)C [Compound 248] | < 80% |  | < 80% | < 80% |

| Compound | pest or weed control at 121.5 g/ha (Zymoseptoria tritici; [1]) | pest or weed control at 121.5 g/ha (Zymoseptoria tritici; [2]) | pest or weed control at 121.5 g/ha (Puccinia triticina; [3]) | pest or weed control at 121.5 g/ha (Puccinia triticina; [4]) |
| --- | --- | --- | --- | --- |
| COCCC(=O)Oc1c(OC)ccnc1C(=O)N[C@@H](C)C(=O)O[C@@H](C)[C@H](c1ccc(C)cc1OC)C(C)C [Compound 249] | < 80% |  | > 80% | > 80% |
| COc1ccnc(C(=O)N[C@@H](C)C(=O)O[C@@H](C)[C@H](c2ccc(F)c(C)c2)C(C)C)c1OC(C)=O [Compound 250] | > 80% |  | > 80% | > 80% |
| COc1ccc([C@H](C(C)C)[C@H](C)OC(=O)[C@H](C)NC(=O)c2nccc(OC)c2OC(C)=O)c(F)c1 [Compound 251] | < 80% |  | > 80% | > 80% |
| COc1ccc([C@H](C(C)C)[C@H](C)OC(=O)[C@H](C)NC(=O)c2nccc(OC)c2OC(C)=O)cc1F [Compound 252] | < 80% |  | > 80% | < 80% |
| COc1cc(C)ccc1[C@H](C(C)C)[C@H](C)OC(=O)[C@H](C)NC(=O)c1nccc(OC)c1OC(C)=O [Compound 253] | < 80% |  | > 80% | > 80% |
| COc1ccc([C@H](C(C)C)[C@H](C)OC(=O)[C@H](C)NC(=O)c2nccc(OC)c2OC(C)=O)c(C)c1 [Compound 254] | > 80% |  | > 80% | > 80% |
| COc1ccnc(C(=O)N[C@@H](C)C(=O)O[C@@H](C)[C@H](c2ccc(C)cc2)C(C)C)c1OCOC(C)=O [Compound 255] | < 80% |  | > 80% | > 80% |
| COc1ccnc(C(=O)N[C@@H](C)C(=O)O[C@@H](C)[C@H](c2ccc(F)c(C)c2)C(C)C)c1OCOC(C)=O [Compound 256] | > 80% |  | > 80% | > 80% |
| COc1ccc([C@H](C(C)C)[C@H](C)OC(=O)[C@H](C)NC(=O)c2nccc(OC)c2OCOC(C)=O)c(F)c1 [Compound 257] | > 80% |  | > 80% | > 80% |
| COc1ccc([C@H](C(C)C)[C@H](C)OC(=O)[C@H](C)NC(=O)c2nccc(OC)c2OCOC(C)=O)cc1F [Compound 258] | < 80% |  | > 80% | < 80% |
| COc1cc(C)ccc1[C@H](C(C)C)[C@H](C)OC(=O)[C@H](C)NC(=O)c1nccc(OC)c1OCOC(C)=O [Compound 259] | < 80% |  | > 80% | > 80% |
| COc1ccc([C@H](C(C)C)[C@H](C)OC(=O)[C@H](C)NC(=O)c2nccc(OC)c2OCOC(C)=O)c(C)c1 [Compound 260] | > 80% |  | > 80% | > 80% |
| COc1ccccc1[C@H](C(C)C)[C@H](C)OC(=O)[C@H](C)NC(=O)c1nccc(OC)c1OC(C)=O [Compound 261] | < 80% | < 80% | > 80% | < 80% |
| COc1ccc([C@H](C(C)C)[C@H](C)OC(=O)[C@H](C)NC(=O)c2nccc(OC)c2OC(C)=O)c(OC)c1 [Compound 262] | < 80% | < 80% | > 80% | < 80% |
| COc1ccccc1[C@H](C(C)C)[C@H](C)OC(=O)[C@H](C)NC(=O)c1nccc(OC)c1OCOC(C)=O [Compound 263] | < 80% | > 80% | > 80% | > 80% |
